Assay [1] deals with Staphylococcus aureus. Kind of assay: Minimum growth inhibiting concentration, agar plate method. In kind it is cell-based. Conditions: for Minimum growth inhibiting concentration: strain resistant to the respective drug. The procedure:
(§1) The drug-resistant strains of bacterial species were obtained in the manner described below according to the concentration gradient plate culture (see "Chemotherapeutics and Resistant Bacteria", 1970, By Chikara Watanabe, Asakura Shoten).
(§2) The agar plates with drug concentration gradient ranging from 10 to 100 μg/ml were prepared, and each strain of the bacterial species to be tested was streaked or smeared. These plates were kept at 37° C. for several days and the colony formed in the high concentration area was isolated and again similarly inoculated to the plates. Such operation was repeated several times to obtain the bacterial strains resistant to the respective drugs.
(§3) The drug sensitivity of the drug-resistant strains and that of the original strains (sensitive strains) were compared by way of the minimum growth inhibiting concentration (hereinafter abbreviated as MIC) according to the Standard Method of the Japanese Chemotherapeutical Association (see "Chemotherapy" Vol. 22, No. 6, 1126 (1974), by MIC Determination Method Reform Committee). More specifically, double diluted systems of each drug were prepared and they were mixed with the heart-infusion agar medium (Nippon Eiyo Kagaku Co., Ltd.) to form the agar plates. Then a loopful of each strain, which had been cultured at 37° C. in Trypto-soy bouillon (Nippon Eiyo Kagaku Co., Ltd.) for 18 hr. was smeared on each the plate, and after culturing for 18 hr. at 37° C., the growth of the strain on each plate was examined.
(§4) The amount of the present substance added is more than 10 μg/ml, preferably more than 100 μg/ml. The pH of the medium was maintained at 7.2±0.1 so that MIC would not be affected by pH of the medium.
(§5) Specimens of the drug-resistant bacterial strain were obtained according to the aforementioned concentration-gradient plate culture by using Staphylococcus aureus, Streptococcus faecalis, Escherichia coli, Salmonella enteritidis, Klebsiella pneumoniae and Pseudomonas aeruginosa.

Assay [2] relates to Klebsiella pneumoniae. Described as above. The format is cell-based. To be noted: for Minimum growth inhibiting concentration: strain resistant to the respective drug. The procedure:
as §1, §2, §3, §4, §5

Assay [3] relates to chloramphenicol-resistant strain of Salmonella enteritidis. Briefly: Therapeutical test in mice infected with chloramphenicol-resistant Salmonella enteritidis (Example 6). In kind it is in vivo, male ICR-JCL mouse. Conditions: chloramphenicol alone 50 mg/kg i.p., 5 days after administration. The procedure:
The following experiment was then carried out on the present substance having the above-mentioned properties.
The chloramphenicol-resistant strain of Salmonella enteritidis were obtained as in Example 1.
A quarter milli-liter of suspension of the aforementioned chloramphenicol-resistant bacterial strain in Tryptosoy-bouillon (see Example 2) including 5% of mucin was intraperitoneally inoculated to each mouse of 5 groups of male ICR-JCL mouse, the group consisting of 10 mice. The inoculum was 1×10^8 cells/mouse. Twenty five hours after the inoculation, 50 mg/kg of chloramphenicol was administered intraperitoneally. 500 mg/kg of the present substance was further given orally to another group. The rate of survival 5 days after the administration was 40% in the group where chloramphenicol alone was administered, while it was 80% in the group where the antibiotic was given in combination with the present substance.

The test system of assay [4] is Escherichia coli. Kind of assay: Minimum growth inhibiting concentration, agar plate method. In kind it is cell-based. Conditions: for Minimum growth inhibiting concentration: strain resistant to the respective drug. The procedure: as §1, §2, §3
(§6) MIC has apparently been reduced to half the level or less before addition of the present substance as will be seen in Table 3 of EXAMPLE 1. The amount of the present substance added is more than 10 μg/ml, preferably more than 100 μg/ml. The pH of the medium was maintained at 7.2±0.1 so that MIC would not be affected by pH of the medium.
(§7) Specimens of the drug-resistant bacterial strain were obtained according to the aforementioned concentration-gradient plate culture by using Staphylococcus aureus, Streptococcus faecalis, Escherichia coli, Salmonella enteritidis, Klebsiella pneumoniae and Pseudomonas aeruginosa. The MICs of the original bacterial strains and those of the bacterial strains which have developed resistance to the respective antibiotics are summarized in Table 2.

Assay [5] concerns Salmonella enteritidis. Described as above. The format is cell-based. To be noted: for Minimum growth inhibiting concentration: strain resistant to the respective drug. The procedure:
as §1, §2, §3, §6, §7

For assay [6], the system named is Streptococcus faecalis. The assay is described as above. To be noted: for Minimum growth inhibiting concentration: strain resistant to the respective drug. In kind it is cell-based. The procedure:
as §1, §2, §3, §6, §7

Where [7] appears, read: strain resistant to the respective antibiotic (Table 2).
The mark [8] stands for this setting: present substance added at 100 μg/ml.
[9] abbreviates: present substance not added (Table 3).

As to `O=C(N[C@H](CO)[C@H](O)c1ccc([N+](=O)[O-])cc1)C(Cl)Cl` [CP, Chlorampheniocol], the “Minimum growth inhibiting concentration (MIC)” value in assay [1] (original strain) is 3.1 µg/mL; in assay [1] (setting [7]) it was 25 µg/mL; in assay [2] (original strain), 0.8 µg/mL; in assay [2] (setting [7]), 25 µg/mL; in assay [4] (original strain) it was 1.6 µg/mL; in assay [4] (setting [7]), 50 µg/mL. The “Minimum growth inhibiting concentration (MIC)” value in assay [5] (original strain) was found to be 0.8 µg/mL; in assay [5] (setting [7]) it was 12.5 µg/mL. In addition, the “Minimum growth inhibiting concentration” value in assay [1] (setting [8]) was 6.3 µg/mL; in assay [1] (setting [9]) it was 25 µg/mL; in assay [2] (setting [8]) it was 6.3 µg/mL; in assay [2] (setting [9]) it was 25 µg/mL; in assay [4] (setting [8]), 12.5 µg/mL; in assay [4] (setting [9]), 50 µg/mL. In addition, the results for the “Minimum growth inhibiting concentration” value in assay [5] (setting [8]) and in assay [5] (setting [9]) were 3.2 µg/mL and 12.5 µg/mL, respectively. The rate of survival in assay [3] was found to be 40%.

For the compound `CN(C)[C@@H]1C(O)=C(C(N)=O)C(=O)[C@@]2(O)C(O)=C3C(=O)c4c(O)cccc4[C@@](C)(O)[C@H]3C[C@@H]12` [TC, Tetracycline], the “Minimum growth inhibiting concentration (MIC)” value in assay [1] (original strain) worked out at 0.8 µg/mL; in assay [1] (setting [7]), 25 µg/mL; in assay [2] (original strain) it was 1.6 µg/mL; in assay [2] (setting [7]) it was 25 µg/mL; in assay [4] (original strain) it was 3.1 µg/mL; in assay [4] (setting [7]), 25 µg/mL. Further, the “Minimum growth inhibiting concentration (MIC)” value in assay [6] (original strain) was determined as 0.4 µg/mL; in assay [6] (setting [7]), 25 µg/mL; in assay [5] (original strain), 1.6 µg/mL; in assay [5] (setting [7]), 12.5 µg/mL. Also, the “Minimum growth inhibiting concentration” value was 3.2 µg/mL in assay [1] (setting [8]); 25 µg/mL in assay [1] (setting [9]); 12.5 µg/mL in assay [2] (setting [8]); 25 µg/mL in assay [2] (setting [9]); 6.3 µg/mL in assay [4] (setting [8]); 25 µg/mL in assay [4] (setting [9]). The “Minimum growth inhibiting concentration” value in assay [6] (setting [8]) is 6.3 µg/mL; in assay [6] (setting [9]), 25 µg/mL; in assay [5] (setting [8]), 6.3 µg/mL; in assay [5] (setting [9]) it was 12.5 µg/mL.

For the compound `CC1(C)S[C@@H]2[C@H](NC(=O)Cc3ccccc3)C(=O)N2[C@H]1C(=O)O` [PG, Penicillin G], the “Minimum growth inhibiting concentration (MIC)” value is 0.025 µg/mL in assay [1] (original strain); 12.5 µg/mL in assay [1] (setting [7]); 6.3 µg/mL in assay [2] (original strain); greater than 100 µg/mL in assay [2] (setting [7]); 12.5 µg/mL in assay [4] (original strain); greater than 100 µg/mL in assay [4] (setting [7]). Moreover, the “Minimum growth inhibiting concentration (MIC)” value is 6.3 µg/mL in assay [5] (original strain) and greater than 100 µg/mL in assay [5] (setting [7]). For the same compound, the “Minimum growth inhibiting concentration” value in assay [1] (present substance added at 1000 μg/ml) was 1.6 µg/mL; in assay [1] (setting [9]), 12.5 µg/mL.
